Laboratory results taken from a melting point compilation (Tetko et al.; mined from patent text by program, amines drawn as free bases though some values may be those of a salt).

Row | Structure (SMILES) | melting point [°C]
1 | CCc1cccc(-n2cnc(-c3cnc4[nH]cc(C(=O)N[C@@H](C)C(C)(C)C)c4n3)c2)c1 | 284 to 287
2 | COc1cc(SC2SCC(O)C(O)C2O)cc(OC)c1OC (centres undefined) | 166
3 | Cc1nc(-c2nn(Cc3ccccc3)c3ccccc23)oc1CO | 127 to 129
4 | CC1(C)CN(C(=N)NC=C(C#N)C(=O)N(CC2CC2)c2cccc(C(F)(F)F)c2)C(=O)N1 | 121 to 122
5 | CC(=O)N1CCC(n2c(=O)[nH]c3ccccc32)CC1 | 212 to 214
6 | CCOCc1nc2c(N)nc(C)cc2n1CCCCNC(=O)C(C)C | 170 to 172
7 | CCCCNCc1ccc(-c2ccccc2S(=O)(=O)NC(C)(C)C)cc1 | 98 to 99
8 | O=C(c1ccc(F)cc1)c1ccc(SCc2ccccc2)cc1 | 96
9 | CS(=O)(=O)C(=C1CN(C(c2ccccc2)c2ccccc2)C1)c1cc(F)ccc1F | 176
10 | Cc1[nH]c2ccc(CCN(C)C3CCOCC3)cc2c1C(=O)OCc1ccccc1 | 109 to 111
11 | Cc1cc(C(=O)Nc2ccc(C(N)=O)cc2)on1 | > 300
12 | N#Cc1ccc(C2NC(=O)NC2=O)c(SCCc2ccccc2)c1 (centres undefined) | 198
13 | CCCCCCCCOC(=O)c1ccc(OC(=O)c2ccc(C(=O)Oc3ccc(C(=O)OCCCCCCCC)cc3)cc2)cc1 | 108 to 110
14 | Cc1nc(Nc2ccccc2)sc1C(=O)c1ccc(N)c([N+](=O)[O-])c1 | 235 to 239
15 | N#Cc1ccc(OC2CCN(c3ccncc3)C2)cc1 (centres undefined) | 182 to 185
16 | COC(=O)c1ccc(/C=C(\C)c2ccc3c(c2)C(C)(C)CCO3)cc1 | 92 to 95
17 | CCOC(=O)C(Cc1ccc2ccc3cccc4ccc1c2c34)(NC(C)=O)C(=O)OCC | 135 to 140
18 | COc1cccc2c1nc(C(F)F)n2-c1nc(N2CCOCC2)c2cnn(C3CCN(S(=O)(=O)CCl)CC3)c2n1 | 250 to 253
19 | N#CCCNC(=S)C1CC(CF)(CF)Oc2ccc([N+](=O)[O-])cc21 (centres undefined) | 183 to 184
20 | O=C(c1ccccc1)c1ccc(C(=O)N2Cc3ccccc3CCc3ccccc32)cc1 | 89 to 92
21 | N#Cc1cn(-c2c(Cl)cc(C(F)(F)F)cc2Cl)cc1I | 118 to 120
22 | CC(C)Cc1nc2c(N)nc3ccccc3c2s1 | 123 to 125
23 | O=S1N=C(NCCCN(Cc2ccsc2)c2ccccn2)C(NCc2ccncc2)=N1 (centres undefined) | 155 to 157
24 | c1ccc2c(c1)SCCc1c-2n(CCCN2CCCCC2)c2ccccc12 | 84 to 87
25 | COC(=O)c1cc(C2CO2)cc([N+](=O)[O-])c1 (centres undefined) | 59 to 60

Row | Structure (SMILES) | melting point [°C]
26 | CC(C)Oc1cc(CCC(=O)O)n(Cc2ccc(Cl)cc2Cl)n1 | 114 to 115
27 | COc1ccc2c(c1)sc1nc(C=O)cn12 | 214 to 215
28 | CCCCCS(=O)(=O)NC(=O)CCc1ccc(OCCCOCCOC)cc1Oc1ncc(C(F)(F)F)cc1Cl | 95 to 95.8
29 | COc1cc([N+](=O)[O-])ccc1-c1cnc(C)s1 | 114 to 117
30 | CC(C)n1c(=O)n(C(N)=O)c2ccccc21 | 195 to 196
31 | Cc1n[nH]c(C)c1-c1ccc(OC2SCC(O)C(O)C2O)cn1 (centres undefined) | 210
32 | CC#CCOc1cc(Oc2ccc(Cl)cc2F)ncn1 | 118
33 | Clc1ncnc2c1ncn2CCCN1CCC(COc2ccccc2)CC1 | 95 to 96
34 | CS(=O)(=O)Nc1cc(NS(C)(=O)=O)cc([N+](=O)[O-])c1 | 223 to 224
35 | NCCNS(=O)(=O)c1cc(NC(=O)c2cnn3c(C(F)(F)F)cc(-c4ccc(C(F)(F)F)cc4)nc23)c(Cl)s1 | 195
36 | COC(=O)[C@H](CCSC)NC(=O)c1ccc(/C=C(/Cn2ccnc2)c2ccc(F)cc2)cc1 | 54 to 57
37 | CCN(CC)C(=O)n1ccc(S(=O)(=O)c2ccc(Br)cc2C(F)(F)F)n1 | 62 to 65
38 | CC(=O)C(C)C(=O)N(c1ccc(Cl)cc1)C(C)C (centres undefined) | 77 to 79
39 | Nc1nc(SSc2n[nH]c(N)n2)n[nH]1 | 250 to 256
40 | CC(=O)C1(c2ccccc2)CCN(C(=O)OC(C)(C)C)CC1 | 91 to 92
41 | CCCNC(=O)C1(CCCCN2CCC(NC(=O)OC(C)(C)C)CC2)c2ccccc2-c2ccccc21 | 118 to 120
42 | Cc1nn2c(=O)c(CCCl)c(C)nc2s1 | 118
43 | N#Cc1cscc1Nc1ccc(Cl)cc1[N+](=O)[O-] | 214
44 | COc1ccc(C=Cc2cc(OC)c(OC)c(OC)c2)cc1OC | 150 to 152
45 | O=c1[nH]c2cc(Cl)ccc2c(O)c1-c1ccc2c(c1)OCO2 | > 350
46 | COc1ccc2c(c1)C(=O)Cc1c(Cl)cccc1S2 | 117 to 120
47 | CC(=O)C(=Cc1ccc(C(F)(F)F)cc1)C(C)=O | 46 to 48
48 | CS(=O)(=O)NC(=O)c1cccc([N+](=O)[O-])c1 | 175 to 178
49 | COC(=O)c1cc(NC(=O)OC(C)(C)C)c(NC(=O)CC(=O)c2cccc(C#N)c2)cc1I | 162 to 166
50 | CC(=O)N1CCC(C(=O)OC2c3ccccc3C(=O)N2c2ccc3ccc(Cl)nc3n2)CC1 (centres undefined) | 101

Row | Structure (SMILES) | melting point [°C]
51 | CCCCCCn1c2ccc(C)cc2c(=O)c2c1cnn2C | 80 to 82
52 | CCOCc1cc2cc(Cl)ccc2oc1=Nc1ccc(OC)cc1 | 136 to 138
53 | COc1ccc(CNc2nnc(Cl)c3ccc(C#N)cc23)cc1Cl | 213 to 214
54 | COc1ccc(-c2nc(CC(=O)O)c(-c3ccco3)o2)cc1 | 177 to 178
55 | N=C(Nc1ccc(Cl)cc1)Nc1ncc(Cl)cc1OCc1c(F)cccc1Cl | 132 to 133
56 | COc1ccc(N2Cc3cnc(Nc4ccc(F)cc4)nc3N([C@@H](C)CO)C2=O)c(F)c1 | 173 to 177
57 | CCCC(=O)c1cnc2c(OC)cccc2c1Nc1ccc(OC(=O)CC)cc1C | 163 to 165
58 | CCOC(Cc1ccc(OCCN2CCSc3ccccc32)cc1)C(N)=O (centres undefined) | 120 to 122
59 | COc1ccc(-c2ccc(N(C)C)cc2)cc1C=O | 113 to 115
60 | COC(=O)c1c[nH]c(-c2ccc(OC)cc2)n1 | 188 to 190
61 | Cc1ccc2c(c1)-c1ncnn1CC(=O)N2 | 206 to 208
62 | O=C1c2ccccc2C(=O)N1CCCSc1ncccn1 | 81.5 to 82.5
63 | CC(=O)Nc1ccc(NC(=O)c2ccc(-c3[nH]nc4c3C(=O)c3c(NC(=O)NN5CCOCC5)cccc3-4)s2)cc1 | 253 to 254
64 | CCCc1c(OCCCSCCC(=O)O)ccc(C(C)=O)c1O | 90 to 92
65 | Cc1ccc(S(=O)(=O)Oc2ccc(NC(=O)NCCCl)cc2)cc1 | 149 to 150
66 | CC1Cc2c(c3cccnc3n(-c3cccc(C(F)(F)F)c3)c2=O)O1 (centres undefined) | 205 to 207
67 | C=CCNS(=O)(=O)c1ccc(I)cc1 | 76 to 77
68 | CC(=O)OC1CC2C(=O)CC3C(CCC4(C)C(C(C)C=CC(C)C(C)C)CCC34)C2(C)CC1OC(C)=O (centres undefined) | 196 to 197
69 | O=C(Nc1ccc2ccc(Cl)nc2n1)C1=CSCCO1 | 270
70 | CNC[C@H]1CC[C@H](c2nc3ccccc3[nH]2)CC1 | 232 to 235
71 | Cc1cc(C)c2c(c1C)OCC2c1ccc(C2OCCO2)cc1 (centres undefined) | 107 to 108
72 | CC1(C)OC(c2ccc(S(C)(=O)=O)cc2F)=C(c2ccccc2)C1=O | 175 to 176
73 | COc1ccc(C(=O)C=Cc2ccccc2[N+](=O)[O-])c(OC)c1OC | 107 to 108
74 | CCN(CC)Cc1nc2cc(OC)c(OC)cc2c(-c2ccc(OC)c(OC)c2)c1C(=O)CC(C)C | 153 to 154
75 | CC(=Cc1ccccc1)n1c(=O)[nH]c2ccc(F)cc21 | 190

Row | Structure (SMILES) | melting point [°C]
76 | CCCC(=O)Cc1ccc(C(=O)Nc2ccc3cc(CN4CCN(C)CC4)cnc3c2C)cc1 | 177
77 | CCCCc1ccc(C(=O)Oc2ccc(C(=O)O)cc2)cc1C12CC3CC(CC(C3)C1)C2 | 205 to 206
78 | CCn1cc(-c2ccc3nnn(Cc4ccc5ncccc5c4)c3n2)cn1 | 132 to 134
79 | Cc1nccn1-c1nc(-c2ccc(Cl)cc2)c(CCCN2C(=O)CNC2=O)o1 | 197 to 198
80 | N#Cc1cccc(C2=Nc3ccc(C#CC4(O)CCCCC4)cc3NC(=O)C2)c1 | 196
81 | CN1C(=O)C2C3CCC(C3)C2(c2ccc3c(c2)CCCC3)C1=O (centres undefined) | 108 to 114
82 | Cc1cccnc1C(=O)c1[nH]c2cc(Cl)ccc2c1N | 171 to 172
83 | CCOC(=S)NCCN1CCC(Nc2nc3ccccc3n2Cc2ccc(F)cc2)CC1 | 149
84 | Cc1oc(-c2ccc(C(F)(F)F)cc2)nc1COc1cccc(C#CC(C)n2oc(=O)[nH]c2=O)c1 (centres undefined) | 84 to 86
85 | NC(=O)CNC(=O)c1ccnc(-c2cccc3cc(Cc4cccc(C(F)(F)F)c4)sc23)c1 | 176 to 177
86 | NC(=O)c1ccc2cc(Nc3ccc(O)cc3)ccc2c1 | 260
87 | COc1cc(C(=O)O)ccc1Cn1cc(/C=C/C(=O)N(C)C)c2ccc(/C=C/C(=O)N(C)C)cc21 | 270 to 272
88 | O=C(O)c1cnc2c(F)c(F)ccc2c1 | 275
89 | CCOC(=O)C1=CC2(CCC1S(=O)(=O)Nc1ccc(F)cc1Cl)CC2 (centres undefined) | 125 to 126
90 | COc1ccccc1-c1ccc(C)n1CC[C@H]1C[C@H](O)CC(=O)O1 (relative stereo) | 112 to 114
91 | COC(=O)CCc1ccc(OCC2CN(c3ccccc3)C(=O)O2)cc1 (centres undefined) | 138 to 139
92 | CC(CNc1ccc(C(=O)O)cc1)Oc1ccc(Cl)c2ccccc12 (centres undefined) | 165 to 168
93 | CC1CCN(c2cc(C(C)(C)C)no2)C1=O (centres undefined) | 73 to 75
94 | O=C(c1ccc(F)cc1)N1CCCC(c2nc(-c3ccc(F)cc3)no2)C1 (centres undefined) | 118 to 122
95 | Cc1oc(-c2ccccc2)nc1COc1cccc(/C=C/C=O)c1 | 103 to 104
96 | CCc1nc2c(o1)C(=O)C(Cl)=C(Nc1ccccc1)C2=O | 159
97 | COc1cc(S(=O)(=O)N2CCN(C(=O)C=C(c3ccccc3)c3ccccc3)CC2)cc(OC)c1OC | 163 to 165
98 | CC12C=CC(=O)C=C1CCC1C3=CC(O)C(O)(C(=O)CO)C3(C)CC(O)C12 (centres undefined) | 240 to 242
99 | Cc1ncsc1CCOc1ccc(NC(=O)c2cc(F)cc(N3CCCCC3)c2)c2ccccc12 | 221 to 222
